# Measurements taken from US4626547A, “Antibiotic AM-2604-A, an anti-trichomonas agent, anti-caccidium agent, anti-viral agent and anti-fungal agent containing the same and methods of use of the same” (The Kitasato Institute, priority 1982, dated 1986).
# “Also recorded” adds a separate entry of the source.
# What was measured:
# fungi [1] = conditions: known antibiotic substances, literature; cited from earlier work
# [2] = tested on: Newcastle disease virus (NDV); test: microbe, parasite or virus in culture; format: cell-based; conditions: avian paramyxovirus 1, 96 h; read-out: 50% Effective Dose (ED50)
# [3] = tested on: DIE strain of vaccinia virus (Vac-DIE); test: microbe, parasite or virus in culture; format: cell-based; conditions: Orthopoxvirus vaccinia, 96 h; read-out: 50% Effective Dose (ED50)
# Piricularia oryzae = test: microbe, parasite or virus in culture; format: cell-based
# [4] = Toxicity testing, intraperitoneal injection; conditions: mouse, in vivo, ip, mice
# Experimental: The toxicity testing of the antibiotic AM-2604-A substance was performed using mice by the intraperitoneal injection method.
# fungi [5] = test: Antifungal activity (summary); format: cell-based
# Trichomonas foetus = test: Infection-therapy test of Trichomonas foetus-infected mice; format: in vivo, mice infected with Trichomonas foetus; conditions: for Number of Mice That Died / Cured Mice / Living Mice with Formation of Ascites / Mice with Trichomonas foetus: oral; for Cured Mice / Living Mice with Formation of Ascites / Mice with Trichomonas foetus: 7 days
# Experimental: An infection-therapy test of Trichomonas foetus-infected mice was performed as follows:
# Mice were divided into groups of ten. Trichomonas foetus was cultivated at 37° C. on a Trichocel broth with 5% inactivated calf serum added (produced by BBL Co.) for 48 hours. One milliliter of the Trichomonas foetus-containing solution (4×10^6 cells/ml) was injected intraperitoneally into mice having a weight of about 20 g. […]
# The infection-therapy effect was judged as follows:
# Seven days after the injection of Trichomonas foetus, the formation of ascites was examined. In the case of mice in which ascites was formed, the ascites were taken out and the presence of Trichomonas foetus was examined using a microscope.
# [6] = tested on: Vesicular stomatitis virus (VSV); test: microbe, parasite or virus in culture; format: cell-based; conditions: 48 h, read-out: 50% Effective Dose (ED50)
# [7] = tested on: IHD strain of vaccinia virus (Vac-IHD); test: microbe, parasite or virus in culture; format: cell-based; conditions: Orthopoxvirus vaccinia, 96 h; read-out: 50% Effective Dose (ED50)
# Gram-positive bacteria = test: Antibacterial activity against Gram-positive bacteria (summary); format: cell-based
# [8] = tested on: Herpes virus Type No. 2 (HSV-2); test: Antiviral plaque-formation reduction in CE cells; format: cell-based; conditions: Human alphaherpesvirus 2, 72 h, 20 h pretreatment, 3 days, read-out: 50% Effective Dose (ED50)
# [9] = tested on: Herpes virus Type No. 1 (HSV-1); test: Antiviral plaque-formation reduction in CE cells; format: cell-based; conditions: Human alphaherpesvirus 1, 72 h, 20 h pretreatment, 3 days, read-out: 50% Effective Dose (ED50)
# Xanthomonas oryzae = test: microbe, parasite or virus in culture; format: cell-based
# DNA or RNA viruses = test: Antiviral activity (summary); format: cell-based, virus
# [10] = tested on: Western equine encephalitis virus (WEE); test: microbe, parasite or virus in culture; format: cell-based; conditions: 48 h, read-out: 50% Effective Dose (ED50)
# Fusarium oxysporum = test: MIC by agar dilution method; format: cell-based
# Description: (§1) The minimum inhibitory concentrations (MIC) of the antibiotic substance as determined by the agar dilution method are shown in Table 1 below.
# Alternaria kikuchiana = test: MIC by agar dilution method; format: cell-based
# Description: as §1
# Aspergillus niger = test: MIC by agar dilution method; format: cell-based
# Description: as §1
# Microsporum gypseum = test: MIC by agar dilution method; format: cell-based; conditions: Nannizzia gypsea
# Description: as §1
# [11] = tested on: Trichophyton interdigitale; test: MIC by agar dilution method; format: cell-based
# Description: as §1
# [12] = tested on: Bacillus subtilis ATCC 6633; test: MIC by agar dilution method; format: cell-based; conditions: ATCC6633
# Description: as §1
# [13] = tested on: Micrococcus luteus ATCC 9341; test: MIC by agar dilution method; format: cell-based; conditions: ATCC9341
# Description: as §1
# Botrytis cinerea = test: MIC by agar dilution method; format: cell-based
# Description: as §1
# Mucor racemosus = test: MIC by agar dilution method; format: cell-based
# Description: as §1
# [14] = tested on: Mycobacterium smegmatis ATCC 607; test: MIC by agar dilution method; format: cell-based; conditions: Mycolicibacterium smegmatis, ATCC607
# Description: as §1
# Saccharomyces sake = test: MIC by agar dilution method; format: cell-based
# Description: as §1
# [15] = tested on: Proteus vulgarius IFO 3167; test: MIC by agar dilution method; format: cell-based
# Description: as §1
# Monilinia fructicola = test: MIC by agar dilution method; format: cell-based
# Description: as §1
# [16] = tested on: Staphylococcus aureus ATCC 65389; test: MIC by agar dilution method; format: cell-based; conditions: ATCC65389
# Description: as §1
# Escherichia coli NIHJ = test: MIC by agar dilution method; format: cell-based
# Description: as §1
# Candida albicans = test: MIC by agar dilution method; format: cell-based
# Description: as §1
# Eimeria tenella = test: Effectiveness on coccidium-infected chicken; format: in vivo, white leghorn male chicks infected with Eimeria tenella; conditions: for Disorder of Cecum, grade - (Normal): chicks per group with grade -; for Disorder of Cecum, grade ± (Minor): chicks per group with grade ±; for Ratio of Increment of Weight: non-infected control = 1.00
# Experimental: The potency of the antibiotic substance on coccidium-infected chickens was determined as follows:
# Two-week-old white leghorn male chicks were divided into four groups of ten each. The feed used in this assay was a commercially available chick-breeding standard feed (major components: 19% crude protein, 2.5% crude fat, 5.0% crude fiber, 8.0% crude ash, 0.7% calcium, and 0.55% phosphorus).
# One day after the start of feeding, 2×10^4 mature oocysts of Eimeria tenella per chick were orally administered to the chicks of the groups (Groups 1, 2 and 3) except for a non-infected control group (Group 4). Thereafter, the chicks of Groups 1 and 2 were bred by feeding the standard feed containing 0.005% and 0.0l% of the antibiotic substance, respectively, and Groups 3 and 4 were bred by feeding only the standard feed.
# During the breeding period, the weight of each chick was measured, and the blood in the feces was observed. Furthermore, the number of oocysts in the feces 7 days after the infection of the oocysts were counted, and the disorder of cecum was examined by necropsy. In this way, the anti-coccidium action of the antibiotic substance was determined.
# The items in Table 3 are as follows: [formula]
# The amount of blood from the intestine of the chick is judged from the number of blood stains.
# + Minor, but slight disorder is observed.
# ++ Moderate hypertrophy is observed.
# +++ Serious (disorder is very significant)
# Number of oocysts per gram of the feces 7 days after the infection
# Sindbis virus (Sb) = test: Antiviral plaque-formation reduction in CE cells; format: cell-based; conditions: 48 h, 20 h pretreatment, 2 days, read-out: 50% Effective Dose (ED50)
# Gram-negative bacteria = test: Antibacterial activity against Gram-negative bacteria (summary); format: cell-based
# Solubility in solvents = format: physicochemical
# [17] = drug amount administered 4 mg/kg
# [18] = drug amount administered 8 mg/kg
smiles,measurement,setting,value
COC1=CC(C)=CC(C)C(O)C(C)CC(C)=CC=CC(OC)C(C(C)C(O)C(C)C2(O)CC(OC(=O)/C=C/C(=O)NC3=C(O)CCC3=O)C(C)C(C(C)C)O2)OC1=O (stereo not shown) [Setamycin],activity against fungi of known antibiotics (in words),fungi [1],active
C/C=C/C1OC(O)(C(C)C(O)C(C)C2OC(=O)C(OC)=CC(C)=CC(C)C(O)C(CC)C(O)C(C)CC(C)=CC=CC2OC)CC(OC(=O)/C=C/C(=O)NC2=C(O)CCC2=O)C1C (stereo not shown) [AM-2604-A],EC50,[2],0.0003 µg/mL
same,EC50,[3],0.0003 µg/mL
same,MIC,Piricularia oryzae,12.5 µg/mL
same,LD50,[4],3 mg/kg
same,activity against fungi (in words),fungi [5],active
same,Number of Mice That Died,Trichomonas foetus; [17],2/10
same,Cured Mice,Trichomonas foetus; [17],5/10
same,Living Mice with Formation of Ascites,Trichomonas foetus; [17],2/10
same,Mice with Trichomonas foetus,Trichomonas foetus; [17],5/10
same,Number of Mice That Died,Trichomonas foetus; [18],1/10
same,Cured Mice,Trichomonas foetus; [18],8/10
same,Living Mice with Formation of Ascites,Trichomonas foetus; [18],1/10
same,Mice with Trichomonas foetus,Trichomonas foetus; [18],2/10
same,anti-trichomonas action (in words),Trichomonas foetus; summary of Table 4,excellent anti-trichomonas action; also recorded: active
same,EC50,[6],0.0003 µg/mL
same,EC50,[7],0.0003 µg/mL
same,activity against Gram-positive bacteria (in words),Gram-positive bacteria,little antibacterial activity; also recorded: almost inactive
same,EC50,[8],0.0003 µg/mL
same,EC50,[9],0.0003 µg/mL
same,MIC,Xanthomonas oryzae,> 50 µg/mL
same,activity against viruses (in words),DNA or RNA viruses,high inhibitory activity; also recorded: active
same,EC50,[10],0.0003 µg/mL
same,MIC,Fusarium oxysporum,> 100 µg/mL
same,MIC,Alternaria kikuchiana,> 50 µg/mL
same,MIC,Aspergillus niger,> 100 µg/mL
same,MIC,Microsporum gypseum,50 µg/mL
same,MIC,[11],50 µg/mL
same,MIC,[12],> 100 µg/mL
same,MIC,[13],> 100 µg/mL
same,MIC,Botrytis cinerea,> 50 µg/mL
same,MIC,Mucor racemosus,50 µg/mL
same,MIC,[14],> 100 µg/mL
same,MIC,Saccharomyces sake,100 µg/mL
same,MIC,[15],> 100 µg/mL
same,MIC,Monilinia fructicola,12.5 µg/mL
same,MIC,[16],> 100 µg/mL
same,MIC,Escherichia coli NIHJ,> 100 µg/mL
same,MIC,Candida albicans,> 100 µg/mL
same,Increment of Weight,"Eimeria tenella; Group 1, 0.005% in feed",1.83
same,"Disorder of Cecum, grade + (Minor, but slight disorder is observed)","Eimeria tenella; Group 1, 0.005% in feed, chicks per group with grade +",1/10
same,"Disorder of Cecum, grade - (Normal)","Eimeria tenella; Group 1, 0.005% in feed",8/10
same,"Disorder of Cecum, grade ± (Minor)","Eimeria tenella; Group 1, 0.005% in feed",1/10
same,Ratio of Increment of Weight,"Eimeria tenella; Group 1, 0.005% in feed",0.99
same,Increment of Weight,"Eimeria tenella; Group 2, 0.01% in feed",1.86
same,Number of Oocysts (on the average),"Eimeria tenella; Group 2, 0.01% in feed, 7 days after the infection",0 per gram of the feces
same,"Disorder of Cecum, grade - (Normal)","Eimeria tenella; Group 2, 0.01% in feed",9/10
same,"Disorder of Cecum, grade ± (Minor)","Eimeria tenella; Group 2, 0.01% in feed",1/10
same,Ratio of Increment of Weight,"Eimeria tenella; Group 2, 0.01% in feed",1.01
same,anticoccidium action (in words),Eimeria tenella; summary of Table 3,excellent anticoccidium action; also recorded: active
same,EC50,Sindbis virus (Sb),0.0005 µg/mL
same,activity against Gram-negative bacteria (in words),Gram-negative bacteria,little antibacterial activity
same,"Solubility in organic solvents such as chloroform, acetone, and ethyl acetate","Solubility in solvents; chloroform, acetone, ethyl acetate",Soluble
same,Solubility in lower alcohols,Solubility in solvents; lower alcohols,sparingly soluble
same,Solubility in n-hexane and water,Solubility in solvents; n-hexane and water,insoluble
